The kinase profiling compilation of Christmann-Franck et al. (2016)

How the values were obtained:
Assay in all cases: radiometric filter-binding kinase assay, Kinase HotSpot
Details in all cases: compound 0.5 µM; ATP 10 µM
EPHA8 (human) = EPHA8 (human) (UniProt P29322)
NUAK1 (human) = NUAK1 (human) (UniProt O60285)
ACVR1 (human) = ACVR1 (human) (UniProt Q04771)
MELK (human) = MELK (human) (UniProt Q14680)
CDK1 CCNA2 (human) = CDK1 CCNA2 (human) (UniProt P06493+P20248)
MAP3K2 (human) = MAP3K2 (human) (UniProt Q9Y2U5)
[1] = test system: MAP2K6 (human), P52564 [S207E/T211E]
ROS1 (human) = ROS1 (human) (UniProt P08922)
CSF1R (human) = CSF1R (human) (UniProt P07333)
Chain of CSF1R (human) (P07333 whole entry, looked up): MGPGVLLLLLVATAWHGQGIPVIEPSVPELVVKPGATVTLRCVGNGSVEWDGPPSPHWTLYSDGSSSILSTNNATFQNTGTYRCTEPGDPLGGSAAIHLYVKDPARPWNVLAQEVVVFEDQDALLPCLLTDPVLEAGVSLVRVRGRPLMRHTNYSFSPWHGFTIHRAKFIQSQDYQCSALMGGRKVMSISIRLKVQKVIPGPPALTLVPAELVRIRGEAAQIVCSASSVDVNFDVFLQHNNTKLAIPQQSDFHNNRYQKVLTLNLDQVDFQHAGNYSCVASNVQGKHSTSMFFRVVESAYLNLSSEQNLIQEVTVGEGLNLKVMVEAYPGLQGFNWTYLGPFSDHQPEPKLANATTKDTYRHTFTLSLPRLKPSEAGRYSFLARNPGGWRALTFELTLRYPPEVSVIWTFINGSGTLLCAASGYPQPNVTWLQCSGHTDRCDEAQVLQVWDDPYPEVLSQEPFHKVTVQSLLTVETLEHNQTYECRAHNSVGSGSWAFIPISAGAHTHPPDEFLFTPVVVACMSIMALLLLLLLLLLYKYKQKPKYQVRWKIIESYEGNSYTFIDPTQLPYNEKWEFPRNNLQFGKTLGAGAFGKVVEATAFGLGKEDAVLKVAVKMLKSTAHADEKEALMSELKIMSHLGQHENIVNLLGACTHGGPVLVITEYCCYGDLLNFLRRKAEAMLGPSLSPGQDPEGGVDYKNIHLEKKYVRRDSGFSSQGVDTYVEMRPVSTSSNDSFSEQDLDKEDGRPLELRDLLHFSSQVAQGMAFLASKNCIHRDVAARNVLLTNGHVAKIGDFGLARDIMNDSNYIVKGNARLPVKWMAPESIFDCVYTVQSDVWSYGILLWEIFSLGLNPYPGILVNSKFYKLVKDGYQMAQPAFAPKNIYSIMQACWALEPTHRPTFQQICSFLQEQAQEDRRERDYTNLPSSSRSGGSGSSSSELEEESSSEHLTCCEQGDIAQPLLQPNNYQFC

EPHA4 (human) = EPHA4 (human) (UniProt P54764)
MERTK (human) = MERTK (human) (UniProt Q12866)
DYRK4 (human) = DYRK4 (human) (UniProt Q9NR20)
CHEK2 (human) = CHEK2 (human) (UniProt O96017)
Chain of CHEK2 (human) (O96017 whole entry, looked up): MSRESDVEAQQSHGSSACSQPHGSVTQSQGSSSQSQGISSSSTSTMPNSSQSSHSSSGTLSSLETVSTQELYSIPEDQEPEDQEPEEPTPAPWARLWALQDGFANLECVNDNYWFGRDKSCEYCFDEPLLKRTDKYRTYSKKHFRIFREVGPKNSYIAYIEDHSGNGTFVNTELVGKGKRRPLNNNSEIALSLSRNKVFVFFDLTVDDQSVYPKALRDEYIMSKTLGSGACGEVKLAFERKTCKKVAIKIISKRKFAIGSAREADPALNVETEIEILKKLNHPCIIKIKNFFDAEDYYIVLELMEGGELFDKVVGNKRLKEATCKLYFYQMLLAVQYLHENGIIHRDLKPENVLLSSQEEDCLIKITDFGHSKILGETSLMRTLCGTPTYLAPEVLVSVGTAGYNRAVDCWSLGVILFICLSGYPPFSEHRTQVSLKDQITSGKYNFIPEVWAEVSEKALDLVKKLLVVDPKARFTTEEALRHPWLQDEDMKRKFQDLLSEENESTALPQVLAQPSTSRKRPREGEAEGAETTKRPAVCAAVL

EPHA2 (human) = EPHA2 (human) (UniProt P29317)
PRKG2 (human) = PRKG2 (human) (UniProt Q13237)
PHKG1 (human) = PHKG1 (human) (UniProt Q16816)
MKNK2 (human) = MKNK2 (human) (UniProt Q9HBH9)
PRKCI (human) = PRKCI (human) (UniProt P41743)
INSRR (human) = INSRR (human) (UniProt P14616)
Chain of INSRR (human) (P14616 whole entry, looked up): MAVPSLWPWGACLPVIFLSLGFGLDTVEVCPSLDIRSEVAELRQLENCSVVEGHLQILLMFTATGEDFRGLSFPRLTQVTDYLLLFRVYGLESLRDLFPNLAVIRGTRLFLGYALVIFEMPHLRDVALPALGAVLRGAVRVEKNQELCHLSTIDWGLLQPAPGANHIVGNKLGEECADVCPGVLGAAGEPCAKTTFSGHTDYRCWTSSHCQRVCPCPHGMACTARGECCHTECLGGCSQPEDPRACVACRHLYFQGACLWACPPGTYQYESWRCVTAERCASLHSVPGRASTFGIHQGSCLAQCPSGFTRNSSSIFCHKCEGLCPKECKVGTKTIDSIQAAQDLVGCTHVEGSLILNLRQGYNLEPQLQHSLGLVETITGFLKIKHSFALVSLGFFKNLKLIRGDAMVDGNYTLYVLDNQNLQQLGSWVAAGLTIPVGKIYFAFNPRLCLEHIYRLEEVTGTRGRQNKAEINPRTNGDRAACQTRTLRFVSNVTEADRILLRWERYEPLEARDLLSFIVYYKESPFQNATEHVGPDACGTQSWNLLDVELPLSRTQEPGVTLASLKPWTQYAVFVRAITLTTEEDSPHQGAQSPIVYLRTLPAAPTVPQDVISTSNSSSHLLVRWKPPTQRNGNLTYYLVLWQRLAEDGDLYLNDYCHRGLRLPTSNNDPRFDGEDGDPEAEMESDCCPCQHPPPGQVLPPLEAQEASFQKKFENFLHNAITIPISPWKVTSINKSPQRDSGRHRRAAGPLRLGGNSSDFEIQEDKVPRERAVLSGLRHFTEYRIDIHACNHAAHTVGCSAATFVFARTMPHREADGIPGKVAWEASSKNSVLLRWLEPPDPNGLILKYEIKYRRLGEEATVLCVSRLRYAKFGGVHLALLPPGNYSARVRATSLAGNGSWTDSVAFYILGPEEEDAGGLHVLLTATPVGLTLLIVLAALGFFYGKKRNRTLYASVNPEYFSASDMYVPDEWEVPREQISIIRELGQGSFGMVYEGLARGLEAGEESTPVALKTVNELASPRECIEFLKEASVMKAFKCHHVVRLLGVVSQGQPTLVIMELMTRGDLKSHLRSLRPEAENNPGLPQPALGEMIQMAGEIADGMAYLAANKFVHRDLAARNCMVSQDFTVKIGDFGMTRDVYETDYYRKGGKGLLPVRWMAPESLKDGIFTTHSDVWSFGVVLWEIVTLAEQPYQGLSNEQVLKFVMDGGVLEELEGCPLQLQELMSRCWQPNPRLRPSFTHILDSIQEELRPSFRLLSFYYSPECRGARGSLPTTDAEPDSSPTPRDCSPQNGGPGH

PLK1 (human) = PLK1 (human) (UniProt P53350)
MINK1 (human) = MINK1 (human) (UniProt Q8N4C8)
FGFR4 (human) = FGFR4 (human) (UniProt P22455)
PLK3 (human) = PLK3 (human) (UniProt Q9H4B4)
HIPK1 (human) = HIPK1 (human) (UniProt Q86Z02)
MUSK (human) = MUSK (human) (UniProt O15146)
PAK2 (human) = PAK2 (human) (UniProt Q13177)
CLK3 (human) = CLK3 (human) (UniProt P49761)
FES (human) = FES (human) (UniProt P07332)
TGFBR2 (human) = TGFBR2 (human) (UniProt P37173)
MAP4K4 (human) = MAP4K4 (human) (UniProt O95819)
WNK3 (human) = WNK3 (human) (UniProt Q9BYP7)
HCK (human) = HCK (human) (UniProt P08631)
SRMS (human) = SRMS (human) (UniProt Q9H3Y6)
Chain of SRMS (human) (Q9H3Y6 whole entry, looked up): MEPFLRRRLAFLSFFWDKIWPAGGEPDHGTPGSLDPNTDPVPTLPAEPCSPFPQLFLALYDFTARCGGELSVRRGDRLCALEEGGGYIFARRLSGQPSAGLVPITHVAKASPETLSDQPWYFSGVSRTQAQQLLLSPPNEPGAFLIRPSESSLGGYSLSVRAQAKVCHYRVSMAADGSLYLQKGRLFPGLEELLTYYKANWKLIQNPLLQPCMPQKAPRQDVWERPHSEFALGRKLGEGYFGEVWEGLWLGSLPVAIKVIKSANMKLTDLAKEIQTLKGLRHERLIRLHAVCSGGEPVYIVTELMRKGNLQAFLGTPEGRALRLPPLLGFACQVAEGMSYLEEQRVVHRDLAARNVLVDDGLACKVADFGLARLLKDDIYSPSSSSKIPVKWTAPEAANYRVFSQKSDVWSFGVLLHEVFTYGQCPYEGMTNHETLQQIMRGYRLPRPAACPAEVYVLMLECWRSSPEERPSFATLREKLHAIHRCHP

PRKCB1 (human) = PRKCB1 (human) (UniProt P05771)
DDR2 (human) = DDR2 (human) (UniProt Q16832)
Chain of DDR2 (human) (Q16832 whole entry, looked up): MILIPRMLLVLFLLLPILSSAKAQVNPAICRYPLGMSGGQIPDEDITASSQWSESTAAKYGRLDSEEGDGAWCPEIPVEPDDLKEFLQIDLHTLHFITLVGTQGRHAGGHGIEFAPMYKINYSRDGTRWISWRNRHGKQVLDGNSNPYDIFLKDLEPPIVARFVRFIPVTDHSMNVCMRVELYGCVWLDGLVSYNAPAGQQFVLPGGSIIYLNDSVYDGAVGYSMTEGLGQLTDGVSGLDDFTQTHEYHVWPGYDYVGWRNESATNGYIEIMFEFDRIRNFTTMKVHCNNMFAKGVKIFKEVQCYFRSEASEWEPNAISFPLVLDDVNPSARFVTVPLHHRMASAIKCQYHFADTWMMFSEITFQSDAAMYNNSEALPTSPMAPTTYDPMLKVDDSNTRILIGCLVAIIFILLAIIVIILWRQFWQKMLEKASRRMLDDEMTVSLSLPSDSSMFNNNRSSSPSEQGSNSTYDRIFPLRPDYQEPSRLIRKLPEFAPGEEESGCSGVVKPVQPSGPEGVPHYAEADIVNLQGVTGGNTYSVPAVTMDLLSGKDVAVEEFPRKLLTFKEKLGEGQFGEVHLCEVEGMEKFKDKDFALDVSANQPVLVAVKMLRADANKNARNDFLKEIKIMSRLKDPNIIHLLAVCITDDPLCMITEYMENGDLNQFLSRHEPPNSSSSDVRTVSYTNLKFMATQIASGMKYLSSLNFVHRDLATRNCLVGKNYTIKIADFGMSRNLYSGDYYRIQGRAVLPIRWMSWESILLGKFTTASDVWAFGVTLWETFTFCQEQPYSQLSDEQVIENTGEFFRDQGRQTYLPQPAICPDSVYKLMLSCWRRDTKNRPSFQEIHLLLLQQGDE

PIM2 (human) = PIM2 (human) (UniProt Q9P1W9)
PRKX (human) = PRKX (human) (UniProt P51817)
STK10 (human) = STK10 (human) (UniProt O94804)
GSK3B (human) = GSK3B (human) (UniProt P49841)
MAPK13 (human) = MAPK13 (human) (UniProt O15264)
LTK (human) = LTK (human) (UniProt P29376)
CAMK2B (human) = CAMK2B (human) (UniProt Q13554)

Chain of NUAK1 (human) (O60285 whole entry, looked up): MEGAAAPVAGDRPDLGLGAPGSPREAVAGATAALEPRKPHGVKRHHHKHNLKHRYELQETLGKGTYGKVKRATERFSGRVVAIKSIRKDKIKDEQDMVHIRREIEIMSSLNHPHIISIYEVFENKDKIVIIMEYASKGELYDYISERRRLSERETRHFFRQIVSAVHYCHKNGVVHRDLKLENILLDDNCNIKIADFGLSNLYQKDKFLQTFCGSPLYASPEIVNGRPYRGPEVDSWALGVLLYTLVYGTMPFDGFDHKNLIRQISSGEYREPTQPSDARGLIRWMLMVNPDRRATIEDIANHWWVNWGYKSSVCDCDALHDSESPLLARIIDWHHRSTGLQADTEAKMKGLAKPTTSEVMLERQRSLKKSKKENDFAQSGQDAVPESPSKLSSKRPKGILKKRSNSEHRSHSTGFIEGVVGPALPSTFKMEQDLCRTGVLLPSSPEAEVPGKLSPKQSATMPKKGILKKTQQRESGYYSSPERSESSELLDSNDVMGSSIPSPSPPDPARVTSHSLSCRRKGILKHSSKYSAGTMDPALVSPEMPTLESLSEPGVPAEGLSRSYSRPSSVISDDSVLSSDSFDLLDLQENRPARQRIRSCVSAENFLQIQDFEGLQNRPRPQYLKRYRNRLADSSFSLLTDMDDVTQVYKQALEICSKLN

In the case of `C[C@@H]1CCN(C(=O)CC#N)C[C@@H]1N(C)c1ncnc2[nH]ccc12`, the residual activity (EPHA8 (human)) is reported as 109%, the residual activity (NUAK1 (human)) is reported as 71.2% and the residual activity (ACVR1 (human)) is reported as 104%. For the same compound, the residual activity (MELK (human)) was 79.4%, the residual activity (CDK1 CCNA2 (human)) was 95.9% and the residual activity (MAP3K2 (human)) was 123%. The residual activity [1] was 99.4%, the residual activity (ROS1 (human)) was 94.1% and the residual activity (CSF1R (human)) was 101%. It also gave a residual activity (EPHA4 (human)) of 99.1%, a residual activity (MERTK (human)) of 114% and a residual activity (DYRK4 (human)) of 97.2%. The residual activity (CHEK2 (human)) was 104%, the residual activity (EPHA2 (human)) was 95.8% and the residual activity (PRKG2 (human)) was 106%. For the same compound, the residual activity (PHKG1 (human)) was 90%, the residual activity (MKNK2 (human)) was 97.4% and the residual activity (PRKCI (human)) was 103%. The residual activity (INSRR (human)) was 97.5%, the residual activity (PLK1 (human)) was 101% and the residual activity (MINK1 (human)) was 100%. The residual activity (FGFR4 (human)) was 94.3%, the residual activity (PLK3 (human)) was 99.1% and the residual activity (HIPK1 (human)) was 98.1%. For the same compound, the residual activity (MUSK (human)) was 103%, the residual activity (PAK2 (human)) was 111% and the residual activity (CLK3 (human)) was 106%. The residual activity (FES (human)) was 104%, the residual activity (TGFBR2 (human)) was 98.8% and the residual activity (MAP4K4 (human)) was 101%. For the same compound, the residual activity (WNK3 (human)) was 104%, the residual activity (HCK (human)) was 88.3% and the residual activity (SRMS (human)) was 95.8%. It also gave a residual activity (PRKCB1 (human)) of 101%, a residual activity (DDR2 (human)) of 104% and a residual activity (PIM2 (human)) of 116%. The residual activity (PRKX (human)) was 110%, the residual activity (STK10 (human)) was 92.9% and the residual activity (GSK3B (human)) was 99.6%.
With `CO[C@@H]1[C@H](N(C)C(=O)c2ccccc2)C[C@H]2O[C@]1(C)n1c3ccccc3c3c4c(c5c6ccccc6n2c5c31)C(=O)NC4` the residual activity (EPHA8 (human)) was 94.1%, the residual activity (NUAK1 (human)) was 2.71% and the residual activity (ACVR1 (human)) was 95.5%. The residual activity (MELK (human)) was 4.87%, the residual activity (MAPK13 (human)) was 104% and the residual activity (MAP3K2 (human)) was 30.2%. The residual activity [1] was 91.4%, the residual activity (ROS1 (human)) was 6.53% and the residual activity (CSF1R (human)) was 6.65%. It also gave a residual activity (EPHA4 (human)) of 96.9%, a residual activity (MERTK (human)) of 78.7% and a residual activity (DYRK4 (human)) of 96.4%. The residual activity (CHEK2 (human)) was 85.1%, the residual activity (EPHA2 (human)) was 92.3% and the residual activity (PHKG1 (human)) was 2.34%. The residual activity (PRKCI (human)) was 96.4%, the residual activity (INSRR (human)) was 96.2% and the residual activity (PLK1 (human)) was 95.4%. For the same compound, the residual activity (MINK1 (human)) was 29.2%, the residual activity (FGFR4 (human)) was 84.2% and the residual activity (PLK3 (human)) was 95.3%. The residual activity (HIPK1 (human)) was 101%, the residual activity (MUSK (human)) was 44.6% and the residual activity (LTK (human)) was 50.1%. For the same compound, the residual activity (PAK2 (human)) was 66.6%, the residual activity (CLK3 (human)) was 89.6% and the residual activity (FES (human)) was 48.3%. It also gave a residual activity (TGFBR2 (human)) of 99.1%, a residual activity (WNK3 (human)) of 91.4% and a residual activity (HCK (human)) of 14.9%. It also gave a residual activity (SRMS (human)) of 97.6%, a residual activity (CAMK2B (human)) of 57.4% and a residual activity (DDR2 (human)) of 380%. For the same compound, the residual activity (PRKX (human)) was 55.4% and the residual activity (STK10 (human)) was 19.3%.
`COc1ccc2c(c1)/C(=C/c1cnc[nH]1)C(O)=N2` showed a residual activity (EPHA8 (human)) of 103%, a residual activity (NUAK1 (human)) of 8.87% and a residual activity (ACVR1 (human)) of 105%. For the same compound, the residual activity (MELK (human)) was 36.5%, the residual activity (CDK1 CCNA2 (human)) was 43.7% and the residual activity (MAPK13 (human)) was 102%. It also gave a residual activity (MAP3K2 (human)) of 89.6%, a residual activity [1] of 90.1% and a residual activity (ROS1 (human)) of 91.1%. It also gave a residual activity (CSF1R (human)) of 88.7%, a residual activity (EPHA4 (human)) of 98.2% and a residual activity (MERTK (human)) of 84.7%. For the same compound, the residual activity (DYRK4 (human)) was 98.5%, the residual activity (CHEK2 (human)) was 77.9% and the residual activity (EPHA2 (human)) was 98.4%. For the same compound, the residual activity (PRKG2 (human)) was 99.7%, the residual activity (PHKG1 (human)) was 53.8% and the residual activity (MKNK2 (human)) was 84.9%. The residual activity (PRKCI (human)) was 96.9%, the residual activity (INSRR (human)) was 97.8% and the residual activity (PLK1 (human)) was 103%. For the same compound, the residual activity (MINK1 (human)) was 57.9%, the residual activity (FGFR4 (human)) was 85.8% and the residual activity (PLK3 (human)) was 93%. The residual activity (HIPK1 (human)) was 98.9%, the residual activity (MUSK (human)) was 78.3% and the residual activity (LTK (human)) was 93.6%. It also gave a residual activity (PAK2 (human)) of 97.7%, a residual activity (CLK3 (human)) of 103% and a residual activity (FES (human)) of 97%. It also gave a residual activity (TGFBR2 (human)) of 107%, a residual activity (MAP4K4 (human)) of 19.4% and a residual activity (WNK3 (human)) of 88.5%. It also gave a residual activity (HCK (human)) of 96.1%, a residual activity (SRMS (human)) of 103% and a residual activity (PRKCB1 (human)) of 112%. For the same compound, the residual activity (DDR2 (human)) was 95.5%, the residual activity (PIM2 (human)) was 97.2% and the residual activity (PRKX (human)) was 87.9%. It also gave a residual activity (STK10 (human)) of 67% and a residual activity (GSK3B (human)) of 35.4%.
